Values quoted from earlier work in US20110105443A1, “SALTS OF MEMANTINE AND COX-INHIBITORS AND THEIR CRYSTAL FORM IN THE TREATMENT OF PAIN” (LABORATORIES DEL DR. ESTEVE, S.A., priority 2008, published 2011).

Conditions: stated property of the free drug (base or acid), no method given

Question: For `CC(=O)Oc1cc(C(F)(F)F)ccc1C(=O)O` [Triflusal, 2-acetoxy-4-trifluoromethyl-benzoic acid], which pKa is on record?
Answer: Its pKa is 3.34.
